What was measured:
[1] = test system: jirds; experiment: Pan-cerebral ischemia-reperfusion injury in jirds (BCAO); format: in vivo; conditions: 7 days, dosage-dependent
Description: Biological Activity Experiment 7 The Protective Effects of compound 1 on Pan-Cerebral Ischemia-Reperfusion Injury in Jirds
The methods of biological activity experiment were carried out as follows: equal amounts of male and female jirds (60-70 g) were subjected to bilateral cervical aorta occlusion (BCAO) under narcotism. The drugs or equal amounts of physiological saline solution were injected peritoneally at 30 min before occlusion. After the blood flow in the bilateral cervical aorta was blocked for 5 min, reperfusion was restored and the drug was administered once a day for 7 days. During the BCAO, the body temperature was maintained at 37° C. In the control group, the cervical aorta was only exposed, while not blocked for blood flow. The animals were divided in 6 groups randomly: control group, ischemic group and compound-treated group (0.5, 1.0, 2.0 and 4.0 mg.kg^−1, ip). 7 days after BCAO, the animals were deeply anesthetized by injecting peritoneally 80 mg.kg^−1 pentobarbitol sodium, and perfused with 50 mL physiological saline solution and 4% paraformaldehyde through heart. The brain was dissected, immersed in 4% paraformaldehyde for 24 h, dehydrated, cleared, embedded with paraffin, sectioned and stained with HE. TUNEL staining was employed to detect the nerve apoptosis.

[2] = test system: cordical nerve; experiment: Cordical nerve apoptosis induced by low level oxygen and glucose; format: cell-based, Wistar rats; conditions: for Apoptosis percentage: low level oxygen and glucose 16 h, flow cytometer, control 2.3 ± 1.2, low oxygen and glucose alone 23.8 ± 7.4, means ± SD
Description: Biological Activity Experiment 9 The Inhibition Effects of Compound 1 on the Cordical Nerve Apoptosis Induced by Low Level Oxygen and Glucose
The methods of biological activity experiment 9 were carried out as follows: The cordical nerve were prepared from 12-hour old Wistar rats and cultured. See G. Y. Yang, A. L. Bentz. Reperfusion-induced injure to the blood-brain after middle cerebral artery occlusion in rats. Stroke, 1994,25:1658-1665. Serum-free DMEM medium was applied 12 days later. The preparation was incubated in low oxygen tank (95% N2+5% CO2) for 8, 16 and 24 h respectively, and then restored oxygen to normal level for another 24 h. The experiments on five groups were as follows: the control group was cultured for 14 days with normal medium; low level oxygen and glucose treated group was cultured with normal medium for 12 days, then with serum-free medium containing low level oxygen and glucose for 16 h and with normal oxygen level for another 24 h; compound 1 treated group was cultured in serum-free medium containing low level oxygen and glucose for 16 h and with normal oxygen level for another 24 h, then added respectively different concentrations of compound 1 (0.1, 1.0 and 10 umol.L^−1). As to the method for detecting apoptosis by the electron microscopy and flow cytometer, refer to C.Du, R.Hu, C. A. Csernansky, et al. Very delayed infarction after mild focal cerebral ischemia: a role for apoptosis. J.Cereb.Flow Metab., 1996,16:195-201; M.Chopp, Y.Li, N.Jiang, et al. Antibodies against adhesion molecules reduced apoptosis after transient middle artery occlusion in rat brain. J.Cereb.Flow Metab., 1996,16:578-584.

[3] = target: T1, ATP-sensitive potassium channels in vascular smooth muscles (Rattus norvegicus, UniProt Q63563); experiment: Association kinetics of [^3H]P1075 binding in aortic rings; parameters: species or system Wistar rat; conditions: 37° C.; drug M: Compound 1 10^−4, Glibencamide 10^−5, ATP 10^−2, ADP 10^−3, UDP 5 × 10^−5, GTP 10^−3, Ade 10^−3; control 4.36 ± 0.45; means ± SD, n = 4~10
T1 construct: The aorta was cut into about 3-5 mm arterial rings and the vascular endothelium was scraped off; from tissue; host or cells: endothelium-removed aortic rings of male Wistar rats
Source text: Biological activity experiment 4. Allosteric regulation of novel compounds on ATP-sensitive potassium channels in vascular smooth muscles.
To study the allosteric regulation of compound 1 on ATP-sensitive potassium channels in vascular smooth muscles, the radio-labled-ligand was used in the biological activity experiment 4.
1. The allosteric regulation of compound 1 on the binding sites for the selective KATP blocker glibenclamide in vascular smooth muscles was studied as follows: After decapitated, the male Wistar rat (340±20 g) was immediately incised open the thoracic cavity. The aorta was dissected and immersed in the 4° C. buffer containing 10 mM HEPES to wash off the blood, then carefully extirpated the fat, peripheral connective tissues and thrombus. The aorta was cut into about 3-5 mm arterial rings and the vascular endothelium was scraped off with wet tampon. The arterial rings were blotted, weighted and transferred into the tubes containing proper amount of ice colded physiological saline buffer. In the association kinetics experiment, the arterial circles in the tubes were incubated with, compound 1(10^−4M), pinacidil(10^−4M), ATP(10^−2M), ADP(10^−3M), Ade(10^−3M), […] and equal volume of buffer respectively for 10 min in 25° C. water bath, and then added [^3H]-glibenclamide(3 nM). At 5,10,15,20,30,60,90 and 120 min after incubation, 9 mL ice colded Tris buffer (50 mM) was added to terminate the reaction. After washing off the free and bound [^3H]-glibenclamide, the aorta was blotted, transferred to a scintillator, added 50 uL 30% H2O2 and reacted for 2 h at 80° C. After cooling, 2.5 mL ethyl glycol and 5 mL 1% B-BPD xylene were added in sequence, kept stationary for 8 h and measured under a scintillometer for cpm value. The resulting data were fit into a regression line with In[BEQ/(BEQ-Bt)]vs.t and the parameters for association kinetics were obtained. In the disassociation kinetics experiments, the aorta treated as described above and [^3H]-glibenclamide were incubated for 60 min at 25° C., and then 30 uM glibenclamide was added. 0,5,15,30,60,90 and 120 min later, the cpm values for the complex of [^3H]-glibenclamide and KATP were measured. The resulting data were fit into a regression line with In(B/BEQ)]vs.t and the parameters for disassociation kinetics were obtained. 2. The allosteric regulation of compound 1 on the binding sites for the selective KATP activator P1075 in vascular smooth muscles was studied with the method as described above, but some conditions should be changed as follows: the incubation temperature was 37° C. instead of 25° C.;P1075 was used instead of glibenclamide; In the association kinetics experiments, the time points for sampling were 5,10,15,20,30,45,60 and 90 min, while in the disassociation kinetics experiments, that were 1,3,5,10,20,30,45 and 60 min. Biological activity experiment 5. The effects of compound 1 on the specific binding of high selective activator [^3H]P1075 with ATP-sensitive potassium channels in vascular smooth muscles.

T1 sequence (Q63563 1-1545 isoform Q63563-2): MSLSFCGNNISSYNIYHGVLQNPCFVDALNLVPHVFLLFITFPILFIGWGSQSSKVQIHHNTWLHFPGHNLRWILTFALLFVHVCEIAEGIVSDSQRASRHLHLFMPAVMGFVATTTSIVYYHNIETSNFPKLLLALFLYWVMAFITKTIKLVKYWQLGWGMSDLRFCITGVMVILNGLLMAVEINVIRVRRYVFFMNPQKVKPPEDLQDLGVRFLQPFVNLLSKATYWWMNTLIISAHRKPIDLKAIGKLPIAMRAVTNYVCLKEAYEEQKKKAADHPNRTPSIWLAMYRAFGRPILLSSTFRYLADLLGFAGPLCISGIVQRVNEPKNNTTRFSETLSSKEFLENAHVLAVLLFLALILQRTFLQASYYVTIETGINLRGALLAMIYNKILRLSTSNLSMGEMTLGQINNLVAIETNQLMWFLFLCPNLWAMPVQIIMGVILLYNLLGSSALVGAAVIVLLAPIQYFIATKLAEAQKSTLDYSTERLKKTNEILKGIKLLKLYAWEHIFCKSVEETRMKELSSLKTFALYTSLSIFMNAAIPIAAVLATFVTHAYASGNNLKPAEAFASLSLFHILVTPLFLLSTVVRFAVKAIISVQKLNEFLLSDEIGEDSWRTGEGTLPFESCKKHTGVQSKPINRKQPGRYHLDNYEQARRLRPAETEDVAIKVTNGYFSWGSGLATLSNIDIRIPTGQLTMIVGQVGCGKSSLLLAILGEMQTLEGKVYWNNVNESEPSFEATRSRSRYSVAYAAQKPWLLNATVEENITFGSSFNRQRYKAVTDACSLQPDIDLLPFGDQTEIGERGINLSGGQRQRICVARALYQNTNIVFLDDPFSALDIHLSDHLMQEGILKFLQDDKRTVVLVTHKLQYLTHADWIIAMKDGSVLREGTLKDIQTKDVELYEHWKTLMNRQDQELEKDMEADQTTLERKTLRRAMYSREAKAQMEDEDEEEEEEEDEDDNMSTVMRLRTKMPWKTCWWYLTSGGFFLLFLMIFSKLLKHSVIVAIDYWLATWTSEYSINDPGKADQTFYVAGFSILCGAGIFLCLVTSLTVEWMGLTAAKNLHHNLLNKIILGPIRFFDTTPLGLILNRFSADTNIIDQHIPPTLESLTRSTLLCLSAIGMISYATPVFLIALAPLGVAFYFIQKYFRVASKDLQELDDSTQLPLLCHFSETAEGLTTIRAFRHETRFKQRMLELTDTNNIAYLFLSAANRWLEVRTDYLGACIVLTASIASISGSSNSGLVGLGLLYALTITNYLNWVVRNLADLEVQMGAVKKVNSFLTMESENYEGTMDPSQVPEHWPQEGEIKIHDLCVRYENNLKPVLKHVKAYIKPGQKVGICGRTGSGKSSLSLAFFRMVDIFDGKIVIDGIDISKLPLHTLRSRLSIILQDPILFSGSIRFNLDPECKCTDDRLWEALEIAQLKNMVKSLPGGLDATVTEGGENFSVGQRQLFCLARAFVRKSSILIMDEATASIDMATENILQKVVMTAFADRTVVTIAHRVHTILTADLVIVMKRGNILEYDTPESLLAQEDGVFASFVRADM
T1 sequence (Q63664 whole entry partner): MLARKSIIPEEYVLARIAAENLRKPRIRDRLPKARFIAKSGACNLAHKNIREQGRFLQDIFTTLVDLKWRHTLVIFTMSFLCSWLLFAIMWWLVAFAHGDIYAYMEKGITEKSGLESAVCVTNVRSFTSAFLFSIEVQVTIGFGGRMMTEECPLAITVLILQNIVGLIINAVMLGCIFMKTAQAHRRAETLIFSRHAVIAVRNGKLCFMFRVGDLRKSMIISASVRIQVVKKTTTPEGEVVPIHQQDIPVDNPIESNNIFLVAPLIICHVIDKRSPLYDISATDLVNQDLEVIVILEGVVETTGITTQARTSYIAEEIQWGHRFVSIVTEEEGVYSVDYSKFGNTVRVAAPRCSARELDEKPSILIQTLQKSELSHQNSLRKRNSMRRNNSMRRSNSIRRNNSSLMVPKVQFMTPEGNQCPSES

CC(C)NC(C)(C)C(C)C [compound 1, N-(1-methylethyl)-2,3-dimethyl-2-butylamine]
number of dead pyramidal nerve of hippocampal CA1 region (HE staining) ([1]; 0.5-4.0 mg.kg^−1.d^−1 ip): significantly decreased the number of dead pyramidal nerve | apoptosis of pyramidal nerve of hippocampal CA1 region (TUNEL) ([1]; 0.5-4.0 mg.kg^−1 ip): significantly alleviate the apoptosis | Apoptosis percentage ([2]; 0.1 umol · L^−1): 17.6 ± 5.8% | Apoptosis percentage ([2]; 1 umol · L^−1): 13.9 ± 5.2 % | Apoptosis percentage ([2]; 10 umol · L^−1): 10.8 ± 4.1 % | apoptotic changes of cordical nerve cells under electron microscopy (in words) ([2]; 10 umol.L^−1, low level oxygen and glucose): the above mentioned changes were hardly observed | Association kinetics kobs of [^3H]P1075 binding [3]: 2.44 ± 0.80 ×10^−2 nM^−1 · min^−1

Source: patent US7560473B2 (Institute of Pharmacology and Toxicology Academy of …, priority 2001, dated 2009)
